For test [1], the system named is HeLa. Nature of the test: Induction of apoptosis in human HeLa cells assessed as increase in intracellular reactive oxygen species level after 24 hrs by DCFH-DA staining based laser confocal microscopic analysis. It is filed as functional, cell-based.
The subject of test [2] is HeLa. Kind of test: Induction of microtubule disruption in human HeLa cells assessed as cell shrinkage after 6 hrs by DAPI staining based immunofluorescence microscopic analysis.
Test [3] concerns A549. Nature of the test: Cytotoxicity against human A549 cells after 48 hrs by MTT assay. It is filed as functional, cell-based. Particulars: A549, 48 h.
The test system of test [4] is HeLa. Kind of test: Cell cycel arrest in human HeLa cells assessed as increase in accumulation at G2/M phase after 24 hrs by propidium iodide staining based assay. It is filed as functional.
Test [5] deals with HeLa. Kind of test: Cytotoxicity against human HeLa cells after 48 hrs by MTT assay. It is filed as functional, cell-based. (Formazan colour is commonly taken as a measure of viable cells.)
Test [6] deals with HeLa. Nature of the test: Cell cycel arrest in human HeLa cells assessed as decrease in accumulation at G1 phase after 24 hrs by propidium iodide staining based assay. It is filed as functional.
The subject of test [7] is HeLa. Nature of the test: Upregulation of cyclin B1 expression in human HeLa cells after 24 hrs by Western blot analysis. It is filed as functional, cell-based.
The subject of test [8] is HeLa. Kind of test: Inhibition of tubulin polymerization in human HeLa cells assessed as reduction in polymerized tubulin expression at 2 uM after 24 hrs by chemiluminescence assay. It is filed as cell-based.
Test [9] deals with WI-38. Kind of test: Cytotoxicity against human WI38 cells after 48 hrs by MTT assay. It is filed as cell-based. Particulars: WI-38, 48 h.
In test [10] the test system is HeLa. Kind of test: Induction of microtubule disruption in human HeLa cells assessed as round microtubule after 6 hrs by DAPI staining based immunofluorescence microscopic analysis. It is filed as cell-based.
In test [11] the test system is HeLa. Nature of the test: Inhibition of tubulin polymerization in human HeLa cells assessed as reduction in polymerized tubulin expression at 0.5 uM after 24 hrs by chemiluminescence assay. It is filed as cell-based.
For test [12], the system named is HeLa. Nature of the test: Induction of microtubule disruption in human HeLa cells assessed as nuclear condensation after 6 hrs by DAPI staining based immunofluorescence microscopic analysis. It is filed as cell-based.
The test system of test [13] is HeLa. Kind of test: Induction of microtubule disruption in human HeLa cells assessed as short microtubule after 6 hrs by DAPI staining based immunofluorescence microscopic analysis. It is filed as cell-based.
The target of test [14] is Cyclin-dependent kinase 1 (Homo sapiens) (UniProt P06493). Nature of the test: Reduction in phosphorylated CDC2 level in human HeLa cells after 24 hrs by Western blot analysis. It is filed as cell-based.
Cyclin-dependent kinase 1 (Homo sapiens), sequence (P06493 whole entry, looked up): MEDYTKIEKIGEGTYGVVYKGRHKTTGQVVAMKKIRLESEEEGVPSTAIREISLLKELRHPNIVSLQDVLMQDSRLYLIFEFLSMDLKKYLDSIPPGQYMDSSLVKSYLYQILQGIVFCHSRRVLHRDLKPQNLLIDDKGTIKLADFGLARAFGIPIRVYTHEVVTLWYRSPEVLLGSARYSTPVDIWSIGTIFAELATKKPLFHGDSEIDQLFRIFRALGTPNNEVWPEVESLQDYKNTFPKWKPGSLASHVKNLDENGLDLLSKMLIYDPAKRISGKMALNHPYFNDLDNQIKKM
Test [15] has as its system HeLa. Nature of the test: Induction of apoptosis in human HeLa cells assessed as morphological changes at 0.1 to 1 uM after 24 hrs by Hoechst 33258 staining based fluorescence microscopic analysis. It is filed as functional, cell-based.
Test [16] deals with HeLa. Kind of test: Induction of microtubule disruption in human HeLa cells assessed as dense microtubule after 6 hrs by DAPI staining based immunofluorescence microscopic analysis. It is filed as cell-based.
Test [17] relates to HeLa. Nature of the test: Induction of microtubule disruption in human HeLa cells assessed as nuclear fragmentation after 6 hrs by DAPI staining based immunofluorescence microscopic analysis. It is filed as cell-based.
The test system of test [18] is HeLa. Nature of the test: Induction of apoptosis in human HeLa cells assessed as upregulation of p53 expression by Western blot analysis. It is filed as functional, cell-based. For orientation: A western blot detects proteins with antibodies after separation by electrophoresis.
Test [19] deals with HepG2. Nature of the test: Cytotoxicity against human HepG2 cells after 48 hrs by MTT assay. As to conditions: HepG2, 48 h. It is filed as functional, cell-based.
The subject of test [20] is HeLa. Kind of test: Induction of apoptosis in human HeLa cells assessed as nuclear fragmentation at 0.1 to 1 uM after 24 hrs by Hoechst 33258 staining based fluorescence microscopic analysis. It is filed as functional, cell-based.
Test [21] has as its system HeLa. Kind of test: Upregulation of CDC2 expression in human HeLa cells after 24 hrs by Western blot analysis. It is filed as functional, cell-based.
For test [22], the system named is HCT-8. Nature of the test: Cytotoxicity against human HCT8 cells after 48 hrs by MTT assay. It is filed as functional, cell-based. As to conditions: HCT-8, 48 h.
Test [23] relates to HeLa. Nature of the test: Induction of microtubule disruption in human HeLa cells assessed as dense microtubule at 1 uM after 6 hrs by DAPI staining based immunofluorescence microscopic analysis. It is filed as cell-based.
Test [24] concerns HeLa. Kind of test: Induction of microtubule disruption in human HeLa cells assessed as short microtubule at 1 uM after 6 hrs by DAPI staining based immunofluorescence microscopic analysis. It is filed as cell-based.
The subject of test [25] is HeLa. Kind of test: Induction of microtubule disruption in human HeLa cells assessed as round microtubule at 1 uM after 6 hrs by DAPI staining based immunofluorescence microscopic analysis. It is filed as cell-based.

The values that follow come from ChEMBL document CHEMBL4033698, “One-pot synthesis and biological evaluation of N-(aminosulfonyl)-4-podophyllotoxin carbamates as potential anticancer agents” (Bioorg Med Chem Lett, 2017).

Molecules are shown by their SMILES. Activity calls are given as the source filed them. The calls are words filed in the database; no cut-off is given here. Some results are limits rather than exact numbers.

Regarding `COc1cc([C@@H]2c3cc4c(cc3[C@H](OC(=O)NS(=O)(=O)N3CCOCC3)[C@H]3COC(=O)[C@H]23)OCO4)cc(OC)c1OC`, the Activity entry in test [1], in [2], in test [4], in test [6], in test [7] and in test [10] was “Dose-dependent effect” throughout. Moreover, the Activity result in [12], in [13], in test [14], in test [16], in test [17] and in test [18] was “Dose-dependent effect” throughout. In test [21], the Activity entry is “Dose-dependent effect”. The IC50 (usually the point on the concentration scale where inhibition reaches its midpoint) in [3] was 1.5 µM; in [5] it was 0.5 µM; in [9] it was 109 µM; in test [19], 0.7 µM; in test [22], 16.5 µM. Also, the inhibition entry in [8] and in test [11] was “Active” in each case. Further, the result in [15] and in test [20] was Active.
For `COc1cc([C@@H]2c3cc4c(cc3[C@H](OC(=O)NS(=O)(=O)NC3CCCCC3)[C@H]3COC(=O)[C@H]23)OCO4)cc(OC)c1OC`, the IC50 in test [3] was found to be 2.6 µM; in [5], 4.6 µM; in test [9] it was 78.5 µM; in test [19], 3.7 µM; in test [22], 20.1 µM.
For `COc1cc([C@@H]2c3cc4c(cc3[C@H](OC(=O)NS(=O)(=O)N3CCN(c5ccc([N+](=O)[O-])cc5)CC3)[C@H]3COC(=O)[C@H]23)OCO4)cc(OC)c1OC` the same measures were 13.7 µM, 35.6 µM, 77.2 µM, 6 µM and over 100 µM.
Taken in the same sequence, the figures for `COc1cc([C@@H]2c3cc4c(cc3[C@H](OC(=O)NS(=O)(=O)N3CCN(C)CC3)[C@H]3COC(=O)[C@H]23)OCO4)cc(OC)c1OC` were 5.9 µM, 0.4 µM, 86.5 µM, 1.5 µM and over 100 µM.
Regarding `COc1cc([C@@H]2c3cc4c(cc3[C@H](OC(=O)NS(=O)(=O)N3CCN(c5ccc(F)cc5)CC3)[C@H]3COC(=O)[C@H]23)OCO4)cc(OC)c1OC`, the IC50 in test [3] was determined as 12.2 µM; in test [5], 7.6 µM; in [9] it was 44.3 µM.
As for `COc1cc2c(c(OC)c1OC)-c1ccc(OC)c(=O)cc1[C@@H](NC(C)=O)CC2`, the result in [23], in [24] and in test [25] was Active.
As to `COc1cc([C@@H]2c3cc4c(cc3[C@H](OC(=O)NS(=O)(=O)NC3CCN(C)CC3)[C@H]3COC(=O)[C@H]23)OCO4)cc(OC)c1OC`, the IC50 in test [3] worked out at 3.3 µM; in test [5], 4.1 µM; in test [9] it was 68.7 µM; in test [19], 15.6 µM; in test [22] it was 96 µM.
`COc1cc([C@@H]2c3cc4c(cc3[C@H](OC(=O)NS(=O)(=O)N3CCN(C5CCCC5)CC3)[C@H]3COC(=O)[C@H]23)OCO4)cc(OC)c1OC`: the figures for the IC50 in [3], in [5] and in [9] were 9.8 µM, 57.6 µM and 47.9 µM, respectively.
`COc1cc([C@@H]2c3cc4c(cc3[C@H](OC(=O)NS(=O)(=O)NC3CC3)[C@H]3COC(=O)[C@H]23)OCO4)cc(OC)c1OC`: the IC50 is 4.3 µM in test [3]; 3.9 µM in [5]; 65.3 µM in [9]; 8.8 µM in test [19]; 45 µM in test [22].
Regarding `CC(=O)O[C@H]1C(=O)[C@@]2(C)[C@H]([C@H](OC(=O)c3ccccc3)[C@]3(O)C[C@H](OC(=O)[C@H](O)[C@@H](NC(=O)c4ccccc4)c4ccccc4)C(C)=C1C3(C)C)[C@]1(OC(C)=O)CO[C@@H]1C[C@@H]2O`, in [8], the inhibition entry is “inactive”.
Turning to `COc1cc([C@@H]2c3cc4c(cc3[C@@H](O[C@@H]3O[C@@H]5CO[C@@H](C)O[C@H]5[C@H](O)[C@H]3O)[C@H]3COC(=O)[C@H]23)OCO4)cc(OC)c1O` [ETOPOSIDE], the IC50 came out at 24.9 µM in test [5], 46.9 µM in test [9], 13.4 µM in test [19] and 26.3 µM in test [22].
Regarding `CCCNS(=O)(=O)NC(=O)O[C@H]1c2cc3c(cc2[C@@H](c2cc(OC)c(OC)c(OC)c2)[C@H]2C(=O)OC[C@@H]21)OCO3`, the IC50 in test [3] came out at 9 µM; in test [5] it was 1.9 µM; in test [9] it was 63.3 µM; in test [19], 2.8 µM; in test [22] it was 23.2 µM.
